Measured values as given in PubChem BioAssay AID1259407 (Chemical Carcinogenesis Research Information System (CCRIS), 2018).
Activity calls are given as the source filed them. No rule for the calls is given here.

System: CCRIS mutagenicity, Ames/micronucleus/aberration tests
Assay: CCRIS mutagenicity studies

O=O
mutagenic call (Test System: AMES SALMONELLA TYPHIMURIUM, Strain/Indicator: TA92, Metabolic Activation: NONE, Method: PREINCUBATION): inactive; negative | mutagenic call (Test System: AMES SALMONELLA TYPHIMURIUM, Strain/Indicator: TA97, Metabolic Activation: NONE, Method: PREINCUBATION): inactive; negative | mutagenic call (Test System: AMES SALMONELLA TYPHIMURIUM, Strain/Indicator: TA100, Metabolic Activation: NONE, Method: PREINCUBATION): inactive; negative | mutagenic call (Test System: AMES SALMONELLA TYPHIMURIUM, Strain/Indicator: TA102, Metabolic Activation: NONE, Method: PREINCUBATION): active; positive | mutagenic call (Test System: AMES SALMONELLA TYPHIMURIUM, Strain/Indicator: TA104, Metabolic Activation: NONE, Method: PREINCUBATION): active; positive | mutagenic call (Test System: AMES SALMONELLA TYPHIMURIUM, Strain/Indicator: TA1535, Metabolic Activation: NONE, Method: PREINCUBATION): inactive; negative | mutagenic call (Test System: AMES SALMONELLA TYPHIMURIUM, Strain/Indicator: TA1537, Metabolic Activation: NONE, Method: PREINCUBATION): inactive; negative | mutagenic call (Test System: CHINESE HAMSTER V-79, Strain/Indicator: V-79/8-AZAGUANINE, Metabolic Activation: NONE, Method: STANDARD PLATE): active; positive | mutagenic call (Test System: CHINESE HAMSTER V-79 CELLS, Strain/Indicator: V-79-UL (HPRT)/6-THIOGUANINE, Metabolic Activation: NONE, Method: SUSPENSION/PLATE): active; positive | mutagenic call (Test System: MOUSE LYMPHOMA, Strain/Indicator: L5178Y (TK+/-), Metabolic Activation: NONE, Method: SUSPENSION/PLATE): active; positive

Cc1cc(C)c(C)c(C)c1
mutagenic call (Test System: AMES SALMONELLA TYPHIMURIUM, Strain/Indicator: TA97A, Metabolic Activation: NONE, Method: STANDARD PLATE): active; positive | mutagenic call (Test System: AMES SALMONELLA TYPHIMURIUM, Strain/Indicator: TA97A, Metabolic Activation: RAT LIVER S-9, AROCLOR 1254, Method: STANDARD PLATE): inactive; negative | mutagenic call (Test System: AMES SALMONELLA TYPHIMURIUM, Strain/Indicator: TA98, Metabolic Activation: NONE, Method: STANDARD PLATE): inactive; negative | mutagenic call (Test System: AMES SALMONELLA TYPHIMURIUM, Strain/Indicator: TA98, Metabolic Activation: RAT LIVER S-9, AROCLOR 1254, Method: STANDARD PLATE): inactive; negative | mutagenic call (Test System: AMES SALMONELLA TYPHIMURIUM, Strain/Indicator: TA100, Metabolic Activation: NONE, Method: STANDARD PLATE): inactive; negative | mutagenic call (Test System: AMES SALMONELLA TYPHIMURIUM, Strain/Indicator: TA100, Metabolic Activation: RAT LIVER S-9, AROCLOR 1254, Method: STANDARD PLATE): inactive; negative | mutagenic call (Test System: AMES SALMONELLA TYPHIMURIUM, Strain/Indicator: TA102, Metabolic Activation: NONE, Method: STANDARD PLATE): inactive; negative | mutagenic call (Test System: AMES SALMONELLA TYPHIMURIUM, Strain/Indicator: TA102, Metabolic Activation: RAT LIVER S-9, AROCLOR 1254, Method: STANDARD PLATE): inactive; negative

COC(=O)CN(N=O)C(N)=O
mutagenic call (Test System: E. COLI B, Strain/Indicator: H/R30R, Metabolic Activation: NONE): active; positive | mutagenic call (Test System: E. COLI B, Strain/Indicator: HS30R, Metabolic Activation: NONE): active; positive

C1=Cc2c3ccc4cccc5ccc(c6cccc1c26)c3c45
mutagenic call (Test System: AMES SALMONELLA TYPHIMURIUM, Strain/Indicator: TA98, Metabolic Activation: RAT, LIVER, S-9, AROCLOR 1254 (0.55 MG), Method: STANDARD PLATE): active; positive | mutagenic call (Test System: AMES SALMONELLA TYPHIMURIUM, Strain/Indicator: TA100, Metabolic Activation: RAT, LIVER, S-9, AROCLOR 1254 (0.55 MG), Method: STANDARD PLATE): active; positive | mutagenic call (Test System: AMES SALMONELLA TYPHIMURIUM, Strain/Indicator: TA104, Metabolic Activation: RAT, LIVER, S-9, AROCLOR 1254 (0.55 MG), Method: STANDARD PLATE): active; positive | mutagenic call (Test System: AMES SALMONELLA TYPHIMURIUM, Strain/Indicator: TA1535, Metabolic Activation: RAT, LIVER, S-9, AROCLOR 1254 (0.55 MG), Method: STANDARD PLATE): inactive; negative | mutagenic call (Test System: AMES SALMONELLA TYPHIMURIUM, Strain/Indicator: TA1537, Metabolic Activation: RAT, LIVER, S-9, AROCLOR 1254 (0.55 MG), Method: STANDARD PLATE): active; positive | mutagenic call (Test System: AMES SALMONELLA TYPHIMURIUM, Strain/Indicator: TA1538, Metabolic Activation: RAT, LIVER, S-9, AROCLOR 1254 (0.55 MG), Method: STANDARD PLATE): active; positive
